These are literature values, as cited in patent US10017479B2, “Process to make non nucleosidal reverse transcriptase inhibitors (NNRTI) for the treatment of HIV” (priority 2013, dated 2018).

For series [1], the system named is wild type strains of HIV-1.

On to `O=C(CSc1nnnn1-c1cccc2ccccc12)Nc1ccccc1[N+](=O)[O-]` [compound 3, 2-((1-(naphthalen-1-yl)-1H-tetrazol-5-yl)thio)-N-(2-nitrophenyl)actetamid-e], for which, in series [1], the “activity against the wild type strains of HIV-1” value is reported as “nanomolar activity”. Further, the “activity against the mutated strains of HIV-1” value in the series on mutated strains of HIV-1 is recorded as “nanomolar activity”.
